# Data taken from patent US6796966B2, “Apparatus, and kits for preventing of alleviating vasoconstriction or vasospasm in a mammal” (priority 1997, dated 2004).
# Bridges are numbered along the chain shown (N, C = ends). Where no end group is shown, it is not given here.
# Columns and labels:
# cerebral vasospasm = assay: ITSNP therapy for alleviation and prevention of cerebral vasospasm after aneurysmal SAH, 16 patients; assay type: in vivo, human; conditions: pre-therapy administration
# [1] = in the presence of oxygen; cited from earlier work
# basilar artery = assay: Reversal of endothelin-1-induced cerebral vasoconstriction; suffusion of exposed basilar artery in sCSF, video microscopy; assay type: in vivo, New Zealand White rabbits
# [2] = ET-1 100 nanomolar in sCSF, 1 milliliter per minute, Groups 4, 5, 6, n=38
compound,measurement,setting,value
Cc1nccn1CC1CCc2c(c3ccccc3n2C)C1=O (stereo not drawn) [ondansetron],effect on nausea associated with ITSNP therapy,cerebral vasospasm,abolished
"[N]=O [NO, nitric oxide]",half-life in vivo,[1],measured in seconds
"O=[N+]([O-])OCC(CO[N+](=O)[O-])O[N+](=O)[O-] [NTG, nitroglycerine]","change in baseline diameter of the basilar artery, substance alone","basilar artery; rabbit, in vivo",did not produce changes
same,reversal of ET-1-induced vasoconstriction,"basilar artery; rabbit, in vivo",rapid and pronounced vasodilation
"Endothelin-1 (CSCSSLMDKECVYFCHLDIIW; disulfide 1-15, 3-11; ends not checked; UniProt P05305 53-73, looked up) [ET-1]","reduction of arterial diameter began, after starting the delivery",basilar artery; [2],5 to 8 min
same,reduction of arterial diameter complete within,basilar artery; [2],20 to 30 min
same,"average minimal diameter, % of baseline diameter",basilar artery; ET-1 100 nanomolar suffusion,50.4%
same,average minimal diameter of the artery,"basilar artery; ET-1 100 nanomolar suffusion, baseline 992 microns",500 microns
same,return to baseline diameter after ET-1 when followed by sCSF alone,"basilar artery; Group 4, n=15",> 30 min
